Results published in ChEMBL document CHEMBL3046213, “Repellent, insecticidal and phytotoxic activities of isoalantolactone from Inula racemosa” (Crop Prot, 2006).

Experiments:
[1] = tested on: Triticum aestivum; test: Phytotoxicity in Triticum aestivum (wheat) assessed as germination rate at 500 ug/ml pre-soaked for 60 min measured after 24 hr relative to acetone-treated control; assay type: organism-based; conditions: in vivo
[2] = tested on: Triticum aestivum; test: Phytotoxicity in Triticum aestivum (wheat) assessed as root growth at 500 ug/ml pre-soaked for 60 min measured after 96 hr relative to acetone-treated control; assay type: organism-based; conditions: in vivo
[3] = tested on: Sitophilus oryzae; test: Insecticidal activity against Sitophilus oryzae (rice weevil) assessed as mortality at 1000 ug/g after 10 days by food poison technique relative to acetone-treated control; assay type: functional
[4] = tested on: Sitophilus oryzae; test: Insecticidal activity against Sitophilus oryzae (rice weevil) assessed as mortality at 600 ug/g after 5 days by food poison technique relative to acetone-treated control; assay type: functional
[5] = tested on: Sitophilus oryzae; test: Insecticidal activity against Sitophilus oryzae (rice weevil) assessed as mortality at 600 ug/g after 10 days by food poison technique relative to acetone-treated control; assay type: functional
[6] = tested on: Sitophilus oryzae; test: Insecticidal activity against Sitophilus oryzae (rice weevil) assessed as mortality at 600 ug/g after 15 days by food poison technique relative to acetone-treated control; assay type: functional
[7] = tested on: Sitophilus oryzae; test: Insecticidal activity against Sitophilus oryzae (rice weevil) assessed as mortality at 400 ug/g after 15 days by food poison technique relative to acetone-treated control; assay type: functional
[8] = tested on: Triticum aestivum; test: Phytotoxicity in Triticum aestivum (wheat) assessed as germination rate at 500 ug/ml pre-soaked for 60 min measured after 48 hr relative to acetone-treated control; assay type: organism-based; conditions: in vivo
[9] = tested on: Sitophilus oryzae; test: Insecticidal activity against Sitophilus oryzae (rice weevil) assessed as increase in mortality after 5 to 20 days by food poison technique; assay type: functional, organism-based
[10] = tested on: Sitophilus oryzae; test: Insecticidal activity against Sitophilus oryzae (rice weevil) assessed as mortality at 200 ug/g after 20 days by food poison technique relative to acetone-treated control; assay type: functional
[11] = tested on: Triticum aestivum; test: Phytotoxicity in Triticum aestivum (wheat) assessed as shoot growth at 500 ug/ml pre-soaked for 30 min measured after 96 hr relative to acetone-treated control; assay type: organism-based; conditions: in vivo
[12] = tested on: Sitophilus oryzae; test: Insecticidal activity against Sitophilus oryzae (rice weevil) assessed as mortality at 2000 ug/g after 5 days by food poison technique relative to acetone-treated control; assay type: functional
[13] = tested on: Triticum aestivum; test: Phytotoxicity in Triticum aestivum (wheat) assessed as shoot growth at 500 ug/ml pre-soaked for 60 min measured after 48 hr relative to acetone-treated control; assay type: organism-based; conditions: in vivo
[14] = tested on: Triticum aestivum; test: Phytotoxicity in Triticum aestivum (wheat) assessed as germination rate at 500 ug/ml pre-soaked for 60 min measured after 72 hr relative to acetone-treated control; assay type: organism-based; conditions: in vivo
[15] = tested on: Sitophilus oryzae; test: Insecticidal activity against Sitophilus oryzae (rice weevil) assessed as mortality at 0.05 ug/g after 15 days by food poison technique relative to acetone-treated control; assay type: functional
[16] = tested on: Triticum aestivum; test: Phytotoxicity in Triticum aestivum (wheat) assessed as shoot growth at 500 ug/ml pre-soaked for 30 min measured after 72 hr relative to acetone-treated control; assay type: organism-based; conditions: in vivo
[17] = tested on: Triticum aestivum; test: Phytotoxicity in Triticum aestivum (wheat) assessed as root growth at 500 ug/ml pre-soaked for 30 min measured after 96 hr relative to acetone-treated control; assay type: organism-based; conditions: in vivo
[18] = tested on: Sitophilus oryzae; test: Insecticidal activity against Sitophilus oryzae (rice weevil) assessed as mortality at 1000 ug/g after 20 days by food poison technique relative to acetone-treated control; assay type: functional
[19] = tested on: Sitophilus oryzae; test: Insecticidal activity against Sitophilus oryzae (rice weevil) assessed as mortality at 600 ug/g after 20 days by food poison technique relative to acetone-treated control; assay type: functional
[20] = tested on: Triticum aestivum; test: Phytotoxicity in Triticum aestivum (wheat) assessed as root growth at 500 ug/ml pre-soaked for 60 min measured after 72 hr relative to acetone-treated control; assay type: organism-based; conditions: in vivo
[21] = tested on: Sitophilus oryzae; test: Insecticidal activity against Sitophilus oryzae (rice weevil) assessed as mortality at 0.05 ug/g after 5 days by food poison technique relative to acetone-treated control; assay type: functional
[22] = tested on: Sitophilus oryzae; test: Repellent activity against Sitophilus oryzae (rice weevil) assessed as settling responses at 100 ug/g preincubated for 12 hr prior to inoculation measured after 24 hr by food preference chamber method (reference value: 49.45 +/- 2.65 %); assay type: functional
[23] = tested on: Sitophilus oryzae; test: Insecticidal activity against Sitophilus oryzae (rice weevil) assessed as mortality at 200 ug/g after 15 days by food poison technique relative to acetone-treated control; assay type: functional
[24] = tested on: Sitophilus oryzae; test: Insecticidal activity against Sitophilus oryzae (rice weevil) assessed as mortality at 3000 ug/g after 15 days by food poison technique relative to acetone-treated control; assay type: functional
[25] = tested on: Sitophilus oryzae; test: Insecticidal activity against Sitophilus oryzae (rice weevil) assessed as mortality at 3000 ug/g after 10 days by food poison technique relative to acetone-treated control; assay type: functional
[26] = tested on: Triticum aestivum; test: Phytotoxicity in Triticum aestivum (wheat) assessed as shoot growth at 500 ug/ml pre-soaked for 30 min measured after 120 hr relative to acetone-treated control; assay type: organism-based; conditions: in vivo
[27] = tested on: Triticum aestivum; test: Phytotoxicity in Triticum aestivum (wheat) assessed as germination rate at 500 ug/ml pre-soaked for 30 min measured after 96 hr relative to acetone-treated control; assay type: organism-based; conditions: in vivo
[28] = tested on: Triticum aestivum; test: Phytotoxicity in Triticum aestivum (wheat) assessed as germination rate at 500 ug/ml pre-soaked for 60 min measured after 96 hr relative to acetone-treated control; assay type: organism-based; conditions: in vivo
[29] = tested on: Sitophilus oryzae; test: Insecticidal activity against Sitophilus oryzae (rice weevil) assessed as mortality at 2000 ug/g after 15 days by food poison technique relative to acetone-treated control; assay type: functional
[30] = tested on: Triticum aestivum; test: Phytotoxicity in Triticum aestivum (wheat) assessed as germination rate at 500 ug/ml pre-soaked for 30 min measured after 48 hr relative to acetone-treated control; assay type: organism-based; conditions: in vivo

C=C1C(=O)O[C@@H]2C[C@@]3(C)CCCC(=C)[C@@H]3C[C@H]12 [ISOALANTOLACTONE]
Activity [1]: 25%
Activity [2]: 76.9%
mortality [3]: 64.28%
mortality [4]: 33.33%
mortality [5]: 55.38%
mortality [6]: 56.41%
mortality [7]: 30.77%
Activity [8]: 76.1%
Activity [9]: Dose-dependent effect
mortality [10]: 17.95%
Activity [11]: 96%
mortality [12]: 76.19%
Activity [13]: 53.7%
Activity [14]: 84.6%
mortality [15]: 100%
Activity [16]: 102%
Activity [17]: 99.1%
mortality [18]: 74.36%
mortality [19]: 58.97%
Activity [20]: 63.7%
mortality [21]: 86.54%
Activity [22]: 12.13%
mortality [23]: 17.95%
mortality [24]: 100%
mortality [25]: 100%
Activity [26]: 100.4%
Activity [27]: 100%
Activity [28]: 82.5%
mortality [29]: 100%
Activity [30]: 94%
